This is an account of results in US9365584B2, “Thieno [2,3-B] pyridinedione activators of AMPK and therapeutic uses thereof” (Poxel, priority 2009, dated 2016).

This experiment concerns AMPK. Nature of the experiment: AMPK enzyme activity assay (Delfia technology, AMARA peptide substrate). As to conditions: compound at 30 μM vs AMP at 200 μM. Format: biochemical. Put shortly:
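Value is the ratio of compound (30 μM) to AMP (200 μM) response, each as % of basal control. Phosphorylation of the AMARA peptide after AMPK addition was read by Delfia with an anti-phosphoserine antibody.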
Consider `COc1ccc(C2(C)C(=O)Nc3sc(Cl)c(-c4cccc(C)c4)c3C2=O)cc1` (stereo not shown) [No 155, 2-chloro-5-(4-methoxyphenyl)-5-methyl-3-(m-tolyl)-7H-thieno[2,3-b]pyridine-4,6-dione], for which the “Activity: Ratio between the % of control (basal activity) of compound of formula (1) at 30 μM and the % of control (basal activity) of AMP (natural substrate) at 200 μM” value (“Activity: Ratio between the % of control” for short) is given as “A (0%<A<50%)”. In the case of `Cc1cccc(-c2c(Cl)sc3c2C(=O)C(C)(c2ccccc2F)C(=O)N3)c1` (stereo not shown) [No 156, 2-chloro-5-(2-fluorophenyl)-5-methyl-3-(m-tolyl)-7H-thieno[2,3-b]pyridine-4,6-dione] it was “A (0%<A<50%)”; in that of `O=C1Nc2sc(Cl)c(-c3cccc(F)c3)c2C(=O)C1(F)c1ccccc1` (stereo not shown) [No 157, 2-chloro-5-fluoro-3-(3-fluorophenyl)-5-phenyl-7H-thieno[2,3-b]pyridine-4,6-dione], “C (C≧75%)”. Then `Cc1cccc(-c2c(Cl)sc3c2C(=O)C(C)(c2cccc(F)c2)C(=O)N3)c1` (stereo not shown) [No 158, 2-chloro-5-(3-fluorophenyl)-5-methyl-3-(m-tolyl)-7H-thieno[2,3-b]pyridine-4,6-dione], with “A (0%<A<50%)”; and `COc1cc(-c2csc3c2C(=O)C(F)(c2ccccc2)C(=O)N3)ccc1Br` (stereo not shown) [No 159, 3-(4-bromo-3-methoxy-phenyl)-5-fluoro-5-phenyl-7H-thieno[2,3-b]pyridine-4,6-dione], with “C (C≧75%)”; and `COc1cc(-c2c(F)sc3c2C(=O)C(F)(c2ccccc2)C(=O)N3)ccc1Br` (stereo not shown) [No 160, 3-(4-bromo-3-methoxy-phenyl)-2,5-difluoro-5-phenyl-7H-thieno[2,3-b]pyridine-4,6-dione], with “B (50%≦B<75%)”. For the molecule `O=C1Nc2scc(-c3cccc(Br)c3)c2C(=O)C1(F)c1ccccc1` (stereo not shown) [No 163, 3-(3-bromophenyl)-5-fluoro-5-phenyl-7H-thieno[2,3-b]pyridine-4,6-dione], the “Activity: Ratio between the % of control” value is on record as “B (50%≦B<75%)”.

On to `O=C1Nc2sc(F)c(-c3cccc(Br)c3)c2C(=O)C1(F)c1ccccc1` (stereo not shown) [No 164, 3-(3-bromophenyl)-2,5-difluoro-5-phenyl-7H-thieno[2,3-b]pyridine-4,6-dione], for which the “Activity: Ratio between the % of control” value is “C (C≧75%)”.

Consider `COc1ccc(C2(F)C(=O)Nc3sc(F)c(-c4ccc(F)cc4)c3C2=O)cc1` (stereo not shown) [No 165, 2,5-difluoro-3-(4-fluorophenyl)-5-(4-methoxyphenyl)-7H-thieno[2,3-b]pyridine-4,6-dione], for which the “Activity: Ratio between the % of control” value is recorded as “C (C≧75%)”. In the case of `O=C1Nc2scc(-c3ccc(Br)cc3)c2C(=O)C1(F)c1cccnc1` (stereo not shown) [No 166, 3-(4-bromophenyl)-5-fluoro-5-(3-pyridyl)-7H-thieno[2,3-b]pyridine-4,6-dione] it was “A (0%<A<50%)”; in that of `COc1ccc(C2(F)C(=O)Nc3scc(-c4ccccc4)c3C2=O)cc1` (stereo not shown) [No 167, 5-fluoro-5-(4-methoxyphenyl)-3-phenyl-7H-thieno[2,3-b]pyridine-4,6-dione], “A (0%<A<50%)”; in that of `COc1ccc(C2(F)C(=O)Nc3sc(F)c(-c4ccccc4)c3C2=O)cc1` (stereo not shown) [No 168, 2,5-difluoro-5-(4-methoxyphenyl)-3-phenyl-7H-thieno[2,3-b]pyridine-4,6-dione], “A (0%<A<50%)”. Consider `COc1ccc(C2(F)C(=O)Nc3sc(Cl)c(-c4ccc(F)cc4O)c3C2=O)cc1` (stereo not shown) [No 169, 2-chloro-5-fluoro-3-(4-fluoro-2-hydroxy-phenyl)-5-(4-methoxyphenyl)-7H-thieno[2,3-b]pyridine-4,6-dione], for which the “Activity: Ratio between the % of control” value is listed as “C (C≧75%)”. As for `Cc1cccc(-c2c(Cl)sc3c2C(=O)C(C)(c2ccc(F)cc2)C(=O)N3)c1` (stereo not shown) [No 170, 2-chloro-5-(4-fluorophenyl)-5-methyl-3-(m-tolyl)-7H-thieno[2,3-b]pyridine-4,6-dione], the “Activity: Ratio between the % of control” value is “A (0%<A<50%)”. For the molecule `Cc1cccc(-c2c(Cl)sc3c2C(=O)C(C)(c2cccc(C)c2)C(=O)N3)c1` (stereo not shown) [No 171, 2-chloro-5-methyl-3,5-bis(m-tolyl)-7H-thieno[2,3-b]pyridine-4,6-dione], the “Activity: Ratio between the % of control” value is reported as “A (0%<A<50%)”. In the case of `O=C1Nc2scc(-c3ccc(Cl)cc3)c2C(=O)C1(F)c1ccccc1` (stereo not shown) [No 172, 3-(4-chlorophenyl)-5-fluoro-5-phenyl-7H-thieno[2,3-b]pyridine-4,6-dione] it was “B (50%≦B<75%)”; in that of `O=C1Nc2sc(F)c(-c3ccc(Cl)cc3)c2C(=O)C1(F)c1ccccc1` (stereo not shown) [No 173, 3-(4-chlorophenyl)-2,5-difluoro-5-phenyl-7H-thieno[2,3-b]pyridine-4,6-dione], “B (50%≦B<75%)”. Consider `O=C1Nc2scc(-c3ccc(F)cc3OCc3ccccc3)c2C(=O)C1(F)c1ccccc1` (stereo not shown) [No 174, 3-(2-benzyloxy-4-fluoro-phenyl)-5-fluoro-5-phenyl-7H-thieno[2,3-b]pyridine-4,6-dione], for which the “Activity: Ratio between the % of control” value is on record as “A (0%<A<50%)”. Then `O=C1Nc2sc(F)c(-c3ccc(F)cc3OCc3ccccc3)c2C(=O)C1(F)c1ccccc1` (stereo not shown) [No 175, 3-(2-benzyloxy-4-fluoro-phenyl)-2,5-difluoro-5-phenyl-7H-thieno[2,3-b]pyridine-4,6-dione], with “A (0%<A<50%)”; and `Cc1cccc(C2(Cl)C(=O)Nc3sc(Cl)c(-c4ccc(F)cc4O)c3C2=O)c1` (stereo not shown) [No 176, 2,5-dichloro-3-(4-fluoro-2-hydroxy-phenyl)-5-(m-tolyl)-7H-thieno[2,3-b]pyridine-4,6-dione], with “C (C≧75%)”; and `O=C1Nc2scc(-c3ccccc3F)c2C(=O)C1(F)c1ccccc1` (stereo not shown) [No 177, 5-fluoro-3-(2-fluorophenyl)-5-phenyl-7H-thieno[2,3-b]pyridine-4,6-dione], with “A (0%<A<50%)”.

For `O=C1Nc2sc(F)c(-c3ccccc3F)c2C(=O)C1(F)c1ccccc1` (stereo not shown) [No 178, 2,5-difluoro-3-(2-fluorophenyl)-5-phenyl-7H-thieno[2,3-b]pyridine-4,6-dione], the “Activity: Ratio between the % of control” value was “B (50%≦B<75%)”. `O=C1Nc2scc(-c3ccc(F)cc3F)c2C(=O)C1(F)c1ccccc1` (stereo not shown) [No 179, 3-(2,4-difluorophenyl)-5-fluoro-5-phenyl-7H-thieno[2,3-b]pyridine-4,6-dione]: the “Activity: Ratio between the % of control” value is “A (0%<A<50%)”. For the molecule `COc1ccccc1-c1csc2c1C(=O)C(F)(c1ccccc1)C(=O)N2` (stereo not shown) [No 180, 5-fluoro-3-(2-methoxyphenyl)-5-phenyl-7H-thieno[2,3-b]pyridine-4,6-dione], the “Activity: Ratio between the % of control” value is given as “A (0%<A<50%)”. On to `COc1ccccc1-c1c(F)sc2c1C(=O)C(F)(c1ccccc1)C(=O)N2` (stereo not shown) [No 181, 2,5-difluoro-3-(2-methoxyphenyl)-5-phenyl-7H-thieno[2,3-b]pyridine-4,6-dione], for which the “Activity: Ratio between the % of control” value is listed as “A (0%<A<50%)”. Then `COc1cccc(C2(F)C(=O)Nc3scc(-c4ccccc4)c3C2=O)c1` (stereo not shown) [No 182, 5-fluoro-5-(3-methoxyphenyl)-3-phenyl-7H-thieno[2,3-b]pyridine-4,6-dione], with “C (C≧75%)”; and `COc1cccc(C2(F)C(=O)Nc3sc(F)c(-c4ccccc4)c3C2=O)c1` (stereo not shown) [No 183, 2,5-difluoro-5-(3-methoxyphenyl)-3-phenyl-7H-thieno[2,3-b]pyridine-4,6-dione], with “B (50%≦B<75%)”. Turning to `Cc1cccc(C2(F)C(=O)Nc3sc(Cl)c(-c4ccc(F)cc4O)c3C2=O)c1` (stereo not shown) [No 184, 2-chloro-5-fluoro-3-(4-fluoro-2-hydroxy-phenyl)-5-(m-tolyl)-7H-thieno[2,3-b]pyridine-4,6-dione], the “Activity: Ratio between the % of control” value is listed as “C (C≧75%)”. Then `Cc1c(F)ccc(-c2c(Cl)sc3c2C(=O)C(F)(c2ccccc2)C(=O)N3)c1O` (stereo not shown) [No 185, 2-chloro-5-fluoro-3-(4-fluoro-2-hydroxy-3-methyl-phenyl)-5-phenyl-7H-thieno[2,3-b]pyridine-4,6-dione], with “C (C≧75%)”; and `Cc1cccc(C2(F)C(=O)Nc3sc(Cl)c(-c4ccc(C)c(C)c4)c3C2=O)c1` (stereo not shown) [No 186, 2-chloro-3-(3,4-dimethylphenyl)-5-fluoro-5-(m-tolyl)-7H-thieno[2,3-b]pyridine-4,6-dione], with “C (C≧75%)”. In the case of `Cc1ccc(-c2c(Cl)sc3c2C(=O)C(F)(c2cccnc2)C(=O)N3)cc1C` (stereo not shown) [No 187, 2-chloro-3-(3,4-dimethylphenyl)-5-fluoro-5-(3-pyridyl)-7H-thieno[2,3-b]pyridine-4,6-dione], the “Activity: Ratio between the % of control” value was “C (C≧75%)”.
